Experimental data as given in patent US9416144B2, “Benzoxazine oxazolidinone compound, preparation method and application thereof” (priority 2012, dated 2016).
Converted amounts (≈) assume the structure as drawn.

Key:
[1] = tested on: LRSA, linezolid-resistant strain of Staphylococcus aureus (3 strains); assay: In vitro antibacterial activity on linezolid-resistant strains, MIC in MHB broth, 96-well plate; format: cell-based; settings: LRSA (3 strains)
Description: (§1) The stock solution of the subject drugs in DMSO was 10 mg/mL. MHA (agar) and MHB (broth) were both prepared according to the manufacturer's requirements.
(§2) Double dilution of drugs: under aseptic operation, 12.8 μL of liquid drug was added into the first well of a 96-well plate, and then added 27.2 μL DMSO and mixed. The 2nd to 12nd wells were all added 20 μL DMSO. 20 μL was taken from the first well to the second well and mixed up. 20 μL was taken from the second well to the third well, which was repeated till the 11st well, from which was taken 20 μL and discarded. The 12nd well only had 20 μL of DMSO as the growth control. Then 180 μL of sterile water was added to each well and mixed up. The drug used as control was prepared by the same method.
(§3) The solutions with different concentrations of antibacterial drugs after the double dilution and DMSO were added into a sterile 96-well plate separately, 10 μL per well, ready for use.
(§4) Single colonies were picked from the MHA plates into 5 ml of sterile saline and mixed up.
(§5) Light transmittance was adjusted to 80% with a spectrophotometer. After being diluted by 1:200 with MHB, 90 μL of such bacteria liquid was added into each of the wells which already had 10 μL of the drug liquid, mixed up, and incubated in a regular biochemical incubator at 35° C. for 20 hrs before the results were read out. At this time, the drug concentration in the 1st to 12nd wells was 32, 16, 8, 4, 2, 1, 0.5, 0.25, 0.125, 0.0625, 0.03125, 0 μg/mL, respectively.
(§6) Two parallel groups were set up for the same diluted concentration of a drug.
(§7) 4) Results Reading and Judgment: Refer to the Standard Recommended by the CLSI, 2010 Edition.
(§8) The positive control group was LZ (linezolid, brand name Zyvox, approved by the FDA in 2000 to be firstly sold in the United States, which is the first and also the only one of oxazolidinone antibacterial drugs allowed to enter clinical application).

[2] = tested on: LREFL, linezolid-resistant strain of Enterococcus faecalis (3 strains); assay: as above; format: cell-based; settings: LREFL (3 strains)
Description: as §1, §2, §3, §4, §5, §6, §7, §8

[3] = tested on: LRSE, linezolid-resistant strain of Staphylococcus epidermidis (1 strain); assay: as above; format: cell-based; settings: LRSE (1 strain)
Description: as §1, §2, §3, §4, §5, §6, §7, §8

[4] = tested on: S.a. ATCC 29213 (standard strain of Staphylococcus aureus); assay: as above; format: cell-based; settings: ATCC29213, 35° C. 20 hrs
Description: as §1, §2, §3, §4, §5, §6, §7, §8

[5] = tested on: LREFA, linezolid-resistant strain of Enterococcus faecium (3 strains); assay: as above; format: cell-based; settings: LREFA (3 strains)
Description: as §1, §2, §3, §4, §5, §6, §7, §8

[6] = tested on: Staphylococcus epidermidis sensitive strains (5 strains); assay: In vitro antibacterial activity, MIC by agar double dilution method; format: cell-based; settings: clinical isolates
Source text: (§9) Experimental method: The agar double dilution method (Antimicrob. Agents and Chemother, 40, 1996, 720-726) was used to determine the minimum inhibitory concentration (MIC) of the series of compounds of the invention and the positive control drug linezolid for the test strains. The multipoint inoculation system (Denley A400) was employed to inoculate the bacteria on the agar plate surface with different concentrations of drugs; inoculation amount on each point was about 10^6 CFU/mL. The plates were incubated at 35° C. for 16 hrs before the results were observed. The lowest drug concentration contained in the Petri dish without bacterial growth was used as the minimum inhibitory concentration (MIC value) of the drug fir that strain.
(§10) Test strains: All the test strains were clinically isolated pathogens which were collected from the Nanjing region, and they were re-identified by routine methods before use. 31 strains of the clinically isolated pathogens were chosen, including 6 strains of Enterococcus, 5 Staphylococcus aureus sensitive strains; 5 Staphylococcus epidermidis sensitive strains; 6 Staphylococcus aureus resistant strains; 5 Staphylococcus epidermidis resistant strains; and 4 Streptococcus pneumoniae resistant strains.
(§11) Compounds to be tested were first added 2 ml of DMSO to help them fully dissolved, then added sterile double distilled water to the desired concentration; to all the Petri dish with added drug liquid were added 20 mL MIT medium which was heat-melted to be liquid-like, to make the final drug concentration in the Petri dish to be 64, 32, 16, 8, 4, 2, 1, 0.5, 0.25, 0.125, 0.0625, and 0.031 μg/mL.
as §8

Enterococcus (6 strains) = assay: as above; format: cell-based; settings: clinical isolates, 35° C. 16 hrs
Source text: as §9, §10, §11, §8

[7] = tested on: Staphylococcus aureus sensitive strains (5 strains); assay: as above; format: cell-based; settings: clinical isolates
Source text: as §9, §10, §11, §8

[8] = tested on: Staphylococcus aureus resistant strains (6 strains); assay: as above; format: cell-based; settings: clinical isolates
Source text: as §9, §10, §11, §8

[9] = tested on: Streptococcus pneumoniae resistant strains (4 strains); assay: as above; format: cell-based; settings: clinical isolates
Source text: as §9, §10, §11, §8

[10] = tested on: Staphylococcus epidermidis resistant strains (5 strains); assay: as above; format: cell-based; settings: clinical isolates
Source text: as §9, §10, §11, §8

MIC [1] | MIC [2] | MIC [3] | MIC [4] | MIC [5] | melting point | MIC [6] | MIC (Enterococcus (6 strains)) | MIC [7] | MIC [8] | MIC [9] | MIC [10] | SMILES
8 µg/mL (≈ 21.6 µM) | 8 µg/mL (≈ 21.6 µM) | 4 µg/mL (≈ 10.8 µM) | 0.5 µg/mL (≈ 1.35 µM) | 4 to 8 µg/mL (≈ 10.8 to 21.6 µM) | 164 to 166 °C | 0.125 to 0.5 µg/mL (≈ 0.338 to 1.35 µM) | 1 µg/mL (≈ 2.7 µM) | 0.25 µg/mL (≈ 0.675 µM) | 0.125 to 0.5 µg/mL (≈ 0.338 to 1.35 µM) | 0.25 to 0.5 µg/mL (≈ 0.675 to 1.35 µM) | 0.125 to 0.5 µg/mL (≈ 0.338 to 1.35 µM) | C[C@@H](O)C(=O)c1ccc(-c2ccc3c(c2)OC[C@H]2[C@H](CO)OC(=O)N32)cn1 [Compound 1, (3R,3aS)-3-(hydroxylmethyl)-7-(6-((R)-2-hydroxylpropionyl)pyridin-3-yl)-3a,4-dihydrobenzo[b]oxazolo[3,4-d][1,4]oxazin-1(3H)-one]
8 µg/mL (≈ 21.1 µM) | 4 to 8 µg/mL (≈ 10.5 to 21.1 µM) | 4 µg/mL (≈ 10.5 µM) | 0.5 µg/mL (≈ 1.32 µM) | 4 to 8 µg/mL (≈ 10.5 to 21.1 µM) | – | 0.5 to 1 µg/mL (≈ 1.32 to 2.64 µM) | 1 to 2 µg/mL (≈ 2.64 to 5.27 µM) | 0.5 to 1 µg/mL (≈ 1.32 to 2.64 µM) | 0.5 to 1 µg/mL (≈ 1.32 to 2.64 µM) | 0.5 to 2 µg/mL (≈ 1.32 to 5.27 µM) | 0.5 to 1 µg/mL (≈ 1.32 to 2.64 µM) | O=C1O[C@@H](CO)[C@@H]2COc3cc(-c4ccc(Cn5cncn5)nc4)ccc3N12 [Compound 2, (3R,3aS)-7-(6-((1H-1,2,4-triazol-1-yl)methyl)pyridin-3-yl)-3-(hydroxylmethyl)-3a,4-dihydrobenzo[b]oxazolo[3,4-d][1,4]oxazin-1(3H)-one]
4 to 8 µg/mL (≈ 12.4 to 24.7 µM) | 4 µg/mL (≈ 12.4 µM) | 4 µg/mL (≈ 12.4 µM) | 0.25 µg/mL (≈ 0.773 µM) | 2 to 4 µg/mL (≈ 6.19 to 12.4 µM) | – | 0.25 µg/mL (≈ 0.773 µM) | 1 µg/mL (≈ 3.09 µM) | 0.25 to 0.5 µg/mL (≈ 0.773 to 1.55 µM) | 0.125 to 0.25 µg/mL (≈ 0.387 to 0.773 µM) | 0.25 to 0.5 µg/mL (≈ 0.773 to 1.55 µM) | 0.125 to 0.25 µg/mL (≈ 0.387 to 0.773 µM) | N#Cc1ccc(-c2ccc3c(c2)OC[C@H]2[C@H](CO)OC(=O)N32)cn1 [Compound 3, 5-((3R,3aS)-3-(hydroxylmethyl)-1-oxo-1,3,3a,4-tetrahydrobenzo[b]oxazolo[3,4-d][1,4]oxazin-7-yl)picolinonitrile]
4 µg/mL (≈ 10.4 µM) | 4 to 8 µg/mL (≈ 10.4 to 20.9 µM) | 2 µg/mL (≈ 5.22 µM) | 0.5 µg/mL (≈ 1.3 µM) | 4 to 8 µg/mL (≈ 10.4 to 20.9 µM) | – | 0.5 to 1 µg/mL (≈ 1.3 to 2.61 µM) | 1 µg/mL (≈ 2.61 µM) | 0.5 to 1 µg/mL (≈ 1.3 to 2.61 µM) | 0.5 to 1 µg/mL (≈ 1.3 to 2.61 µM) | 0.5 to 1 µg/mL (≈ 1.3 to 2.61 µM) | 0.5 to 1 µg/mL (≈ 1.3 to 2.61 µM) | O=C1OCCN1c1ccc(-c2ccc3c(c2)OC[C@H]2[C@H](CO)OC(=O)N32)cn1 [Compound 5, (3R,3aS)-3-(hydroxylmethyl)-7-(6-(2-oxazolidino-3-yl)pyridin-3-yl)-3a,4-dihydrobenzo[b]oxazolo[3,4-d][1,4]oxazin-1(3H)-one]
